Assay results: publication PMC8845043 (ACS Pharmacology & Translational Science, 2022)

Key:
[1] = human plasma, following a Posiphen 40 mg dose; cited from earlier work
[2] = target: hBChE from freshly collected human plasma (Homo sapiens, UniProt P06276); assay: Ex vivo anticholinesterase activity; assay type: biochemical
[3] = target: hAChE from freshly collected human erythrocytes (Homo sapiens, UniProt P22303); assay: Ex vivo anticholinesterase activity; assay type: biochemical
hAChE from freshly collected human erythrocytes, sequence (P22303 32-617 isoform P22303-2 limits assumed): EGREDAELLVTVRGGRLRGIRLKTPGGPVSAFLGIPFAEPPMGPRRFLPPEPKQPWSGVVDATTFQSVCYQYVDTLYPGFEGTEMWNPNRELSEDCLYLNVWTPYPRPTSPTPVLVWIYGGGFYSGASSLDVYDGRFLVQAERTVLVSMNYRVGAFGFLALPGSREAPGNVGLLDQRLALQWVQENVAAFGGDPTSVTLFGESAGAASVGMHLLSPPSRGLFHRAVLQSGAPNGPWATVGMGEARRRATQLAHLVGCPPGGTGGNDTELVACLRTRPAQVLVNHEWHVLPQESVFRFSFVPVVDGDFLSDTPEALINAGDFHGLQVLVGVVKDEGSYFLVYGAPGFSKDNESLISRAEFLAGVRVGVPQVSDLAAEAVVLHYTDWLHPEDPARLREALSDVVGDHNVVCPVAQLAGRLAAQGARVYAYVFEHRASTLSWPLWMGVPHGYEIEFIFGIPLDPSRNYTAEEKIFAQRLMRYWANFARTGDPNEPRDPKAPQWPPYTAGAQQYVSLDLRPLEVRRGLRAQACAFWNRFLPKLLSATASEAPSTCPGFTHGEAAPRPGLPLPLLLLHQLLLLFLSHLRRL

hBChE from freshly collected human plasma, sequence (P06276 29-602): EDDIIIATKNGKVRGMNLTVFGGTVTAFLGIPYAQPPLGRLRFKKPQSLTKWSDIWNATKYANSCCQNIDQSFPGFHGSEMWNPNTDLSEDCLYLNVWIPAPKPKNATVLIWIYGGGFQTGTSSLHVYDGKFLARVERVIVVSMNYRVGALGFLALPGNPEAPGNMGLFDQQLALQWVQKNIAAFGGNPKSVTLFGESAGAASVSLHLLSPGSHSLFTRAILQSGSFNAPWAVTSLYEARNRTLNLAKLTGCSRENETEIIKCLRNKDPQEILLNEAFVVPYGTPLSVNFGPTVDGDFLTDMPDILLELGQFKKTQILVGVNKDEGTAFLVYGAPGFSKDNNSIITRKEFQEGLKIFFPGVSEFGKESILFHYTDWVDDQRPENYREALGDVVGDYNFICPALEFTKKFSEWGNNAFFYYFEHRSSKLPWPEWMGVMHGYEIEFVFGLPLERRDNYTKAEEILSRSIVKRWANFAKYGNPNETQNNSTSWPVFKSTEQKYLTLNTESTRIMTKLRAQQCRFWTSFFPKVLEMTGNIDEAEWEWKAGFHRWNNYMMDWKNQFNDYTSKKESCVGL

In the case of `CN1CC[C@]2(C)c3cc(OC(=O)Nc4ccccc4)ccc3N(C)[C@H]12` [Posiphen], the “plasma concentration CMax” value [1] is given as 118.5 ng/mL, the IC50 [2] is given as greater than 10 µM and the IC50 [3] is given as greater than 10 µM. For the same compound, the “AChE inhibitory action (in words)” value ([3]; wet lab evaluation, human AChE) was “lacks AChE inhibitory action”.
Work on `CN1CC[C@@]2(C)c3cc(OC(=O)Nc4ccccc4)ccc3N(C)[C@@H]12` [Phenserine, reference compound] yielded an IC50 [2] of 1.38 ± 0.24 µM.
